Assays:
[1] = system: Glomerella lagenarium (Colletotrichum lagenarium); assay: Glomerella lagenarium (Colletotrichum lagenarium) / liquid culture (anthracnose); type: cell-based; settings: Colletotrichum orbiculare, liquid culture (PDB), 24° C., growth inhibition photometrically 3-4 days after application, read-out: control of Glomerella lagenarium compared to untreated control
Procedure: (§1) Example B-3: Glomerella lagenarium (Colletotrichum lagenarium)/Liquid Culture (Anthracnose) Conidia of the fungus from cryogenic storage are directly mixed into nutrient broth (PDB potato dextrose broth). After placing a (DMSO) solution of test compound into a microtiter plate (96-well format), the nutrient broth containing the fungal spores is added. The test plates are incubated at 24° C. and the inhibition of growth is measured photometrically 3-4 days after application.

[2] = system: Monographella nivalis (Microdochium nivale); assay: Monographella nivalis (Microdochium nivale) / liquid culture (foot rot cereals); type: cell-based; settings: liquid culture (PDB), 24° C., growth inhibition photometrically 4-5 days after application, read-out: control of Monographella nivalis compared to untreated control
Procedure: as §1, with “B-7: Monographella Nivalis (Microdochium nivale)/Liquid” for “B-3: Glomerella lagenarium (Colletotrichum lagenarium)/Liquid”, “(Foot Rot Cereals)” for “(Anthracnose)”, “determined” for “measured”, “4-5” for “3-4”

[3] = system: Mycosphaerella graminicola (Septoria tritici); assay: Mycosphaerella graminicola (Septoria tritici) / liquid culture (Septoria blotch); type: cell-based; settings: Zymoseptoria tritici, liquid culture (PDB), 24° C., growth inhibition photometrically 4-5 days after application, read-out: control of Mycosphaerella graminicola compared to untreated control
Procedure: as §1, with “B-12: Mycosphaerella graminicola (Septoria tritici)/Liquid” for “B-3: Glomerella lagenarium (Colletotrichum lagenarium)/Liquid”, “(Septoria Blotch)” for “(Anthracnose)”, “determined” for “measured”, “4-5” for “3-4”

[4] = system: Magnaporthe grisea (Pyricularia oryzae); type: in vivo; settings: 200 ppm; rice leaf segments cv. Ballila; inoculated 2 days after application; assessed 5-7 days after application

Compound | inhibition of growth at 20 ppm [1] [%] | inhibition of growth at 20 ppm [2] [%] | inhibition of growth at 20 ppm [3] [%] | control of Magnaporthe grisea compared to untreated control [4]
Cn1cc(C(C)(CNC(=O)c2cc(-c3ccc(F)cc3F)on2)c2nc(Br)cs2)cn1 (stereo not shown) [Compound P-8, N-[2-(4-bromothiazol-2-yl)-2-(1-methylpyrazol-4-yl)propyl]-5-(2,4-difluorophenyl) isoxazole-3-carboxamide] | ≥ 80 | ≥ 80 | ≥ 80 | –
Cn1cc(C(C)(CNC(=O)c2cc(-c3ccc(F)cc3F)on2)c2ncc(Br)s2)cn1 (stereo not shown) [Compound P-7, N-[2-(5-bromothiazol-2-yl)-2-(1-methylpyrazol-4-yl)propyl]-5-(2,4-difluorophenyl) isoxazole-3-carboxamide] | ≥ 80 | ≥ 80 | ≥ 80 | –
Cn1cc(C(C)(CNC(=O)c2cc(-c3ccc(F)cc3F)on2)c2nc(Cl)cs2)cn1 (racemic) [Compound P-4, N-[2-(4-chlorothiazol-2-yl)-2-(1-methylpyrazol-4-yl)propyl]-5-(2,4-difluorophenyl)isoxazole-3-carboxamide] | ≥ 80 | ≥ 80 | ≥ 80 | –
Cn1cc(C(C)(CNC(=O)c2cc(-c3ccc(F)cc3F)on2)c2nc(C3CC3)cs2)cn1 (stereo not shown) [Compound P-11, N-[2-(4-cyclopropylthiazol-2-yl)-2-(1-methylpyrazol-4-yl)propyl]-5-(2,4-difluorophenyl) isoxazole-3-carboxamide] | ≥ 80 | ≥ 80 | ≥ 80 | –
Cn1cc(C(C)(CNC(=O)c2cc(-c3ccc(F)cc3F)on2)c2nccs2)cn1 (stereo not shown) [Compound P-2, 5-(2,4-difluorophenyl)-N-[2-(1-methylpyrazol-4-yl)-2-thiazol-2-yl-propyl]isoxazole-3-carboxamide] | ≥ 80 | ≥ 80 | ≥ 80 | –
Cn1cc(C(C)(CNC(=O)c2cc(-c3ccc(F)cc3F)on2)c2nc(Cl)c(Cl)s2)cn1 (stereo not shown) [Compound P-3, N-[2-(4,5-dichlorothiazol-2-yl)-2-(1-methylpyrazol-4-yl)propyl]-5-(2,4-difluorophenyl)isoxazole-3-carboxamide] | ≥ 80 | ≥ 80 | ≥ 80 | –
Cn1cc(C(C)(CNC(=O)c2cc(-c3ccc(F)cc3F)on2)c2nc(Cl)cs2)cn1 (single isomer, unassigned) [Compound P-5, N-[2-(4-chlorothiazol-2-yl)-2-(1-methylpyrazol-4-yl)propyl]-5-(2,4-difluorophenyl) isoxazole-3-carboxamide] | ≥ 80 | ≥ 80 | ≥ 80 | –
Cn1cc(C(C)(CNC(=O)c2cc(-c3ccc(F)cc3F)on2)c2nc(C(F)(F)F)cs2)cn1 (stereo not shown) [Compound P-9, 5-(2,4-difluorophenyl)-N-[2-(1-methylpyrazol-4-yl)-2-[4-(trifluoromethyl)thiazol-2-yl]propyl]isoxazole-3-carboxamide] | ≥ 80 | ≥ 80 | ≥ 80 | –
Cn1cc(C(C)(CNC(=O)c2cc(-c3ccc(F)cc3F)on2)c2csc(Br)n2)cn1 (stereo not shown) [Compound P-10, N-[2-(2-bromothiazol-4-yl)-2-(1-methylpyrazol-4-yl)propyl]-5-(2,4-difluorophenyl) isoxazole-3-carboxamide] | ≥ 80 | ≥ 80 | ≥ 80 | –
Cn1cc(C(C)(CNC(=O)c2cc(-c3ccc(F)cc3F)on2)c2ccn(C)n2)cn1 (stereo not shown) [Compound P-1, 5-(2,4-difluorophenyl)-N-[2-(1-methylpyrazol-3-yl)-2-(1-methylpyrazol-4-yl)propyl]isoxazole-3-carboxamide] | ≥ 80 | ≥ 80 | ≥ 80 | at least 80%

Source: US20250011314A1, “MICROBIOCIDAL PYRAZOLE DERIVATIVES” (SYNGENTA CROP PROTECTION AG, priority 2021, published 2025)
